SMILES strings stand for the structures.

The assay has as its target Sigma-1 receptor (Cavia porcellus). Briefly: In vitro binding affinity towards sigma receptor by the displacement of [3H]PPP from guinea pig brain.
One may read the IC50 as the midpoint of a concentration-inhibition curve. `OC(CCCN1CCN(c2ncc(F)cn2)CC1)c1ccc(F)c2ccccc12` (configuration not stated) [1-(4-Fluoro-naphthalen-1-yl)-4-[4-(5-fluoro-pyrimidin-2-yl)-piperazin-1-yl]-butan-1-ol] had an IC50 of 88 nM. That is a double-digit nanomolar value.

In turn, `NC(CCCN1CCN(c2ncc(F)cn2)CC1)c1ccc(F)c2ccccc12` (configuration not stated) [1-(4-Fluoro-naphthalen-1-yl)-4-[4-(5-fluoro-pyrimidin-2-yl)-piperazin-1-yl]-butylamine] gave an IC50 of 215 nM. Against the preceding compound, the IC50 is about 2.4-fold higher.

Consider `OC(CCCN1CCN(c2ncc(F)cn2)CC1)C1CCCCC1` (configuration not stated) [1-Cyclohexyl-4-[4-(5-fluoro-pyrimidin-2-yl)-piperazin-1-yl]-butan-1-ol], for which the IC50 was determined as 12 nM. Compared with the last compound, the IC50 is about 18-fold lower.

Consider `NC(CCCN1CCN(c2ncc(F)cn2)CC1)C1CCCCC1` (configuration not stated) [1-Cyclohexyl-4-[4-(5-fluoro-pyrimidin-2-yl)-piperazin-1-yl]-butylamine], for which the IC50 worked out at 52 nM.

`O=C(NC(CCCN1CCN(c2ncc(F)cn2)CC1)c1ccc(F)cc1)c1ccc(F)cc1` (configuration not stated) [4-Fluoro-N-{1-(4-fluoro-phenyl)-4-[4-(5-fluoro-pyrimidin-2-yl)-piperazin-1-yl]-butyl}-benzamide] yielded an IC50 above 100 nM.

Compound `O=S(=O)(CCCN1CCN(c2ncc(F)cn2)CC1)c1ccc(F)cc1` [5-Fluoro-2-{4-[3-(4-fluoro-benzenesulfonyl)-propyl]-piperazin-1-yl}-pyrimidine] showed a 50% inhibitory concentration (IC50) above 45 nM.

`Fc1ccc(OCCCN2CCN(c3ncc(F)cn3)CC2)cc1` [5-Fluoro-2-{4-[3-(4-fluoro-phenoxy)-propyl]-piperazin-1-yl}-pyrimidine] came in with an IC50 of 89 nM.

Take `Fc1ccc(SCCCN2CCN(c3ncc(F)cn3)CC2)cc1` [5-Fluoro-2-{4-[3-(4-fluoro-phenylsulfanyl)-propyl]-piperazin-1-yl}-pyrimidine]: the IC50 stood at 51 nM. This IC50 lies about 1.7-fold lower than the previous one.

On to `Fc1ccc(CCCCN2CCN(c3ncc(F)cn3)CC2)cc1` [5-Fluoro-2-{4-[4-(4-fluoro-phenyl)-butyl]-piperazin-1-yl}-pyrimidine], for which the IC50 was 23 nM.

`O=C(OC(CCCN1CCN(c2ncc(F)cn2)CC1)c1ccc(F)cc1)c1ccccc1` (configuration not stated) [Benzoic acid 1-(4-fluoro-phenyl)-4-[4-(5-fluoro-pyrimidin-2-yl)-piperazin-1-yl]-butyl ester]: the half-maximal inhibitory concentration (IC50) is 3500 nM.

For the compound `CC(=O)NC(CCCN1CCN(c2ncc(F)cn2)CC1)c1ccc(F)cc1` (configuration not stated) [N-{1-(4-Fluoro-phenyl)-4-[4-(5-fluoro-pyrimidin-2-yl)-piperazin-1-yl]-butyl}-acetamide], the IC50 was above 49 nM.

For the compound `O=C(NC(CCCN1CCN(c2ncc(F)cn2)CC1)C1CCCCC1)c1ccc(F)cc1` (configuration not stated) [N-{1-Cyclohexyl-4-[4-(5-fluoro-pyrimidin-2-yl)-piperazin-1-yl]-butyl}-4-fluoro-benzamide], the IC50 is above 2 nM.
